One series has as its system C2C12 cells. Nature of the series: Mitochondrial uncoupling activity by oxygen consumption rate (OCR) assay, Seahorse, in presence of oligomycin. The class given is cell-based, mouse. The note with it: Mus musculus, C2C12; in the presence of oligomycin 2.5 μM; read-out: COCR-min: minimal concentration increasing OCR in the presence of oligomycin. A digest of the protocol:
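Mouse C2C12 myoblasts grown in 10% FBS medium had OCR measured on Seahorse XF96/XF24 sequentially: basal, after 2.5 μM oligomycin (final), then after compound at varying concentrations. Rotenone/antimycin A confirmed mitochondrial origin. COCR-min is the minimal compound concentration inducing OCR in the presence of oligomycin.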

A further series relates to C2C12. Put plainly: Cell growth inhibition assay (SRB), C2C12. The class given is cell-based. The note with it: Mus musculus, C2C12, 48 h. Here is the method: Cell growth inhibition assays were performed using a protocol standardized by National Cancer Institute (NCI) for evaluating anti-cancer drugs. Various mammalian cell lines were used for the assays. Briefly, the cells were inoculated into 96 well microtiter plates. After cell inoculation, the microtiter plates were incubated for cell growth for 24 h prior to the addition of compounds. After 24 h, two plates of each cell line were fixed in situ with TCA, to represent a measurement of the cell population for each cell line at the time of compound addition (Tz). Test compounds were solubilized in dimethyl sulfoxide. At the time of test compound addition, five 10-fold or ½ log serial dilutions were made to provide a total of five test compound concentrations plus control. Aliquots of 100 μl of these different test compound dilutions were added to the appropriate microtiter wells already containing 100 μl of the medium, resulting in the required final test compound concentrations. […] The bound stain was subsequently solubilized with 10 mM trizma base, and the absorbance was read on an automated plate reader at a wavelength of 515 nm. Using the seven absorbance measurements [time zero, (Tz), control growth, (C), and test growth in the presence of a compound at the five concentration levels (Ti)], the percentage growth was calculated at each of the test compound concentrations levels.

Series [1] relates to high-fat diet (HFD)-induced diabetic mouse model. Nature of the series: Efficacy in high-fat diet (HFD)-induced diabetic/fatty liver mouse model. The class given is in vivo. As to conditions: Mus musculus; HFD model, oral daily gavage; read-out: Efficacious dosage to reduce blood glucose in mouse models, oral daily gavage. On the procedure: For HFD induced diabetic mouse model, C57Bl6 mice (male, n=6) were induced to obese and diabetic conditions by feeding high-fat diet (HFD, 60% fat calories, Research Diet, Inc. New Brunswick, NJ) for 3-4 months. […] During the 3-week period, the mice continued feeding HFD. […] The blood glucose levels were measured after an overnight fast, plasma insulin levels were tested after 5-6 hours fast, and the glycated HbA1c levels were determined in whole blood samples.
FIG. 15C and FIG. 15D show liver sections from mice fed HFD following 3 weeks of treatment with Compounds 25 and 64, respectively (P.O. dosing of 5 mg/kg, by daily gavage).
Experiments were similarly performed with other compounds, in either high-fat diet induced diabetes and fatty liver models, or in db/db mouse model, or in both, by daily oral gavage administration with low dosages.

Series [2] is described as follows: PO pharmacokinetic study, oral exposure (Example B3). The class given is in vivo. The note with it: blood, po; 10 mg/kg gavage, 24 hrs. On the procedure: The blood concentration of the compound was then determined at 0 (pre-dosing), 5 min, 15 min, 30 min, 1 hr, 2 hr, 4 hr, 8 hr, 24 hr time points by LC-MS/MS analysis (See Tables 1 and 2, vide supra).
Series [3] has as its system cultured mammalian cells, the NIH-3T3 cells, C2C12 cells, and other mammalian cell lines. Put plainly: Mitochondrial membrane potential (MMP) assay, TMRE (or DilC1(5)) staining, related to OCR induction. The class given is cell-based. As to conditions: ratio of concentration leading to 10% MMP retention (90% MMP loss, TMRE) to minimal concentration leading to OCR increase. In a few lines: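 NIH-3T3, C2C12 and other mammalian cells in log phase treated with compound at various concentrations for 2 h, stained with 100 nM TMRE for 15 min, imaged by fluorescence microscopy; alternatively 50 nM DilC1(5), 15–30 min at 37 °C, far-red read. C10% TMRE = concentration leaving 10% MMP.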

Usually GI50 stands for the concentration that inhibits growth by half. High values mean lower sensitivity of the cells, low ones greater sensitivity of the cells. In general, AUC refers to concentration integrated over time. For `C[C@@H]1CN(Cc2cc(Cl)cc(C(=O)Nc3nc4ccc(C(F)(F)F)cc4s3)c2O)C[C@H](C)O1.Cl` [Compound 11, 5-chloro-3-((cis-2,6-dimethylmorpholino)methyl)-2-hydroxy-N-(6-(trifluoromethyl)benzo[d]thiazol-2-yl)benzamide], in the series on C2C12 cells, the minimal effective concentration was below 5 µM. The compound further yielded a GI50 in the series with C2C12 of 5 to 20 µM. Further, in series [1], the minimal effective dose amounted to 1 mg/kg. For the same compound, the AUC at 24 h in series [2] was 60000 to 120000 ng·h/mL.

Regarding `COCCOCc1cc(C(F)(F)F)cc2sc(NC(=O)c3cc(Cl)cc(C)c3O)nc12` [Compound 13, 5-chloro-2-hydroxy-N-(4-((2-methoxyethoxy)methyl)-6-(trifluoromethyl)benzo[d]thiazol-2-yl)-3-methylbenzamide], the minimal effective concentration in the series with C2C12 cells was below 5 µM. Also, the C10%TMRE/Cmin-OCR in series [3] is around 13. Further, the GI50 with C2C12 fell in the range of 5 to 20 µM. This compound also came in with an AUC at 24 h in series [2] of 30000 to 60000 ng·h/mL.

The record behind these values is patent US20260306502A1, “MITOCHONDRIAL UNCOUPLERS FOR TREATMENT OF METABOLIC DISEASES AND CANCER” (Mito Biopharma, LLC, priority 2022, published 2026).
